Experimental data taken from patent US20190231718A1, “TREATMENT OF BREAST CANCER” (Duke University, priority 2016, published 2019).
Residue numbers refer to the chain shown, from its start. Like-named read-outs stand apart in the source and are kept apart here.

How the values were obtained:
[1] = in blood at approved doses: ICI 500 mg, 4OHT 20 mg, raloxifene 60 mg, bazedoxifene 20 mg; cited from earlier work
[2] = molecular target: T1, Y537C mutant receptor (ERα LBD mutant) (Homo sapiens, UniProt P03372, Y537C); assay: ERE-luciferase reporter gene assay, ERα Y537C, SKBR3 cells; type: cell-based
T1 construct: expressed in transfected cells; host or cells: Caov2 ovarian carcinoma cells; SKBR3 breast adenocarcinoma cells
T1 sequence (P03372 1-595 Y537C): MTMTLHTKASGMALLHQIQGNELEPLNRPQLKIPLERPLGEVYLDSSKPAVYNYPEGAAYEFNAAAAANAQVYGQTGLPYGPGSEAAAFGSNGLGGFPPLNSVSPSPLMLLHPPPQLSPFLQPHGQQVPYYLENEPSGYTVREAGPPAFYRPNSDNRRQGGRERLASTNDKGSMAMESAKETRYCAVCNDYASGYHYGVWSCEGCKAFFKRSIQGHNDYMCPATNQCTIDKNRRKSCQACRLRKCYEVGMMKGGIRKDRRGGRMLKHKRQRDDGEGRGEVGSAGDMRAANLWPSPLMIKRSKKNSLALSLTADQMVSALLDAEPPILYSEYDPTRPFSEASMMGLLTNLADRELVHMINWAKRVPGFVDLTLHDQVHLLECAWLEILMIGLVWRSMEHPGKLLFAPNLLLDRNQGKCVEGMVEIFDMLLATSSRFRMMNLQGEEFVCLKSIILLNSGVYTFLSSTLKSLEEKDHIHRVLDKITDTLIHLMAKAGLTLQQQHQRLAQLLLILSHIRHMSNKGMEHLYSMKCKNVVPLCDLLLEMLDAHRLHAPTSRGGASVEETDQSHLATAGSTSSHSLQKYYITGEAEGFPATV
Description: (§1) ExSite mutagenesis was performed using the corresponding primers as summarized in Table 1 below on a pENTR2B ERα WT construct using Pfu ultra taq polymerase. The primers were PNK phosphorylated. Following PCR amplification, the products were digested with DpnI at 37° C. for 1 hr, followed by overnight ligation at 16° C. Ligated products were transformed into DH5α bacterial cells and grown on kanamycin resistant plates. The pENTR clones were verified by sequencing and then swapped into the pcDNA-DEST vector using the Gateway system (Invitrogen) for expression analysis.
(§2) Caov2 ovarian carcinoma cells were grown in RPMI-1640 media (Gibco) supplemented with 8% Fetal Bovine Serum (FBS), Sodium Pyruvate (NaPyr) and non-essential amino acids (NEAA) and passaged every 2-3 days. SKBR3 breast adenocarcinoma cells were grown in DMEM media (Gibco) supplemented with 8% Fetal Bovine Serum (FBS), Sodium Pyruvate (NaPyr) and non-essential amino acids (NEAA) and passaged every 2-3 days. […]
(§3) Caov2 cells were co-transfected with the 7X-TK-ERE-TATA luciferase reporter gene (Nagel et al., Endocrinology 142(11): 4721-4728 (2001)) and expression constructs for either wild-type or mutant receptors using Fugene transfection reagent (Promega). […] Following 24 hours of treatment, cells were lysed and the luciferase and β-gal assays were performed as described previously (Norris et al., J Biol Chem 270(39): 22777-22782 (1995)) and the plates were read on the Fusion α-FP HT plate reader (PerkinElmer Life Sciences).
(§4) See Jeselsohn et al., Nature Reviews Clinical Oncology 12(10): 573-583 (2015); Jeselsohn et al., Clinical Cancer Research 20(7): 1757-1767 (2014); Robinson et al., Nature Genetics 45(12): 1446-1451(2013); Thomas and Gustafsson, Trends in Endocrinology and Metabolism 26(9): 467-476 (2015); and Toy et al., Nature Genetics 45(12): 1439-1445 (2013). The activity of these mutants was evaluated in a reconstituted estrogen response element (ERE)-luciferase reporter assay in Caov2 ovarian carcinoma cells and SKBR3 breast adenocarcinoma cells. […]

[3] = molecular target: T1, Y537C mutant receptor (ERα LBD mutant); assay: ERE-luciferase reporter gene assay, ERα Y537C, Caov2 cells; type: cell-based
Description: as §1, §2, §3, §4

[4] = molecular target: T2, ESR1 wild type receptor (ERα WT) (Homo sapiens, UniProt P03372); assay: ERE-luciferase reporter gene assay, wild-type ERα, Caov2 cells; type: cell-based
T2 construct: expressed in transfected cells; host or cells: Caov2 ovarian carcinoma cells; SKBR3 breast adenocarcinoma cells
T2 sequence (P03372 1-595): T1 sequence (P03372 1-595 Y537C) with C537Y
Description: as §1, §2, §3, §4

[5] = Reported Cmax in blood at approved doses; type: in vivo
From the text: See Maximov et al., Current Clinical Pharmacology 8(2): 135-155 (2013) and McDonnell et al., Journal of Medicinal Chemistry 58(12): 4883-4887 (2015). The transcriptional IC90 values of ER modulators evaluated were compared to the Cmax of these compounds in blood at approved doses. See Highlights of Prescribing Information: Evista, 2007; Highlights of Prescribing Information: Faslodex, 2012; Nolvadex, 2006; and Summary of Product Characteristics: Conbriza 2009.

[6] = molecular target: T3, Y537N mutant receptor (ERα LBD mutant) (Homo sapiens, UniProt P03372, Y537N); assay: ERE-luciferase reporter gene assay, ERα Y537N, SKBR3 cells; type: cell-based
T3 construct: expressed in transfected cells; host or cells: Caov2 ovarian carcinoma cells; SKBR3 breast adenocarcinoma cells
T3 sequence (P03372 1-595 Y537N): T1 sequence (P03372 1-595 Y537C) with C537N
Description: as §1, §2, §3, §4

[7] = molecular target: T2, ESR1 wild type receptor (ERα WT); assay: ERE-luciferase reporter gene assay, wild-type ERα, SKBR3 cells; type: cell-based
Description: as §1, §2, §3, §4

[8] = molecular target: T3, Y537N mutant receptor (ERα LBD mutant); assay: ERE-luciferase reporter gene assay, ERα Y537N, Caov2 cells; type: cell-based
Description: as §1, §2, §3, §4

[9] = human, blood, reported Cmax converted to molar, same approved doses, read-out: Converted (M) Cmax

In the case of 4-hydroxytamoxifen [4OHT], the “Reported Cmax” value [1] is given as 40 ng/mL, the IC90 [2] is given as 59 nM and the “SKBR3 Ratio Cmax/IC90” value [2] is given as 1.86. The “inhibition of receptor transcriptional activity (in words)” value (from here on “inhibition”) [2] was “inhibits the Y537C mutant receptor activity in a dose-response manner”, the “Caov2 Ratio Cmax/IC90” value [3] was 13.24 and the IC90 [3] was 8.31 nM. The “inhibition” value [3] was “inhibits the Y537C mutant receptor activity in a dose-response manner”, the “Caov2 Ratio Cmax/IC90” value [4] was 119.01 and the IC90 [4] was 0.924 nM. The “inhibition” value [4] was “inhibits activity of the ESR1 wild type receptor”, the Cmax ([5]; in vivo) was 1.1e-07 M and the IC90 [6] was 130 nM. For the same compound, the “SKBR3 Ratio Cmax/IC90” value [6] was 0.85, the “inhibition” value [6] was “inhibits the Y537N mutant receptor activity in a dose-response manner” and the IC90 [7] was 3.2 nM. For the same compound, the “SKBR3 Ratio Cmax/IC90” value [7] was 34.38, the “inhibition” value [7] was “inhibits the ESR1 wild type receptor activity” and the “Caov2 Ratio Cmax/IC90” value [8] was 11.6. The IC90 [8] was 9.45 nM and the “inhibition” value [8] was “inhibits the Y537N mutant receptor activity in a dose-response manner”.

For `Cc1c(-c2ccc(O)cc2)n(Cc2ccc(OCCN3CCCCCC3)cc2)c2ccc(O)cc12` [Bazedoxifene, bazedoxifene], the “Reported Cmax” value [1] is listed as 6.2 ng/mL and the Cmax [5, 9] is listed as 7.29e-09 M.

For `C[C@]12CC[C@@H]3c4ccc(O)cc4C[C@@H](CCCCCCCCC[S+]([O-])CCCC(F)(F)C(F)(F)F)[C@H]3[C@@H]1CC[C@@H]2O` (some centres unmarked) [ICI, fulvestrant], the “Reported Cmax” value [1] is given as 28 ng/mL and the Cmax ([5]; human, in vivo) is given as 4.6e-08 M.

For `O=C(c1ccc(OCCN2CCCCC2)cc1)c1c(-c2ccc(O)cc2)sc2cc(O)ccc12` [Raloxifene, raloxifene], the “Reported Cmax” value [1] is given as 1.36 ng/mL and the Cmax [5, 9] is given as 2.87e-09 M.
